The values below come from US20040121954A1, “Poly(dipeptide) as a drug carrier” (priority 1999, published 2004).

The assay concerns PC3 (prostate); KB (nasopharyngeal); MDA MB 231 (breast). Nature of the assay: In vitro cell culture assay (MTT), cell inhibition in three human tumor cell lines. Particulars: 72 hours.

In the case of `CC(=O)O[C@H]1C(=O)[C@@]2(C)[C@H]([C@H](OC(=O)c3ccccc3)[C@]3(O)C[C@H](OC(=O)[C@H](O)[C@@H](NC(=O)c4ccccc4)c4ccccc4)C(C)=C1C3(C)C)[C@]1(OC(C)=O)CO[C@@H]1C[C@@H]2O` [paclitaxel], the “cell inhibition at lower concentrations” value is “more pronounced”.
